{
  "source": "patent US20240374517A1",
  "about": "“LIPIODOL FORMULATION FOR TRANSARTERIAL CHEMOIMMUNOEMBOLIZATION” (Northwestern University, priority 2021, published 2024)",
  "test_system": "HepG2 cells",
  "test": "Dox uptake and cytotoxicity in HepG2 cells",
  "settings": "with (20%) vs without (0%) PF127",
  "data": [
    {"smiles": "COc1cccc2c1C(=O)c1c(O)c3c(c(O)c1C2=O)C[C@@](O)(C(=O)CO)C[C@@H]3O[C@H]1C[C@H](N)[C@H](O)[C@H](C)O1", "note": "[Dox, doxorubicin]", "values": [
      {"measurement": "cytotoxicity of Dox", "setting": "CCK-8, 48 hours", "value": "not affected"},
      {"measurement": "cellular uptake of Dox", "setting": "Dox 10 μM, 30 and 60 minutes", "value": "not affected"}
    ]}
  ]
}
